According to US9487515B2, “Compounds modulating c-fms and/or c-kit activity and uses therefor” (Plexxikon Inc., priority 2006, dated 2016):

Each compound was assayed against c-kit (Homo sapiens, UniProt P10721) (assay: c-kit assays of Examples 40 and 41 (AlphaScreen kinase assays at 10 and 100 μM ATP, 33P-ATP filter assay, M-07e SCF-stimulated proliferation and phosphorylation)).
c-kit, sequence (P10721 with tags, fused parts or gaps): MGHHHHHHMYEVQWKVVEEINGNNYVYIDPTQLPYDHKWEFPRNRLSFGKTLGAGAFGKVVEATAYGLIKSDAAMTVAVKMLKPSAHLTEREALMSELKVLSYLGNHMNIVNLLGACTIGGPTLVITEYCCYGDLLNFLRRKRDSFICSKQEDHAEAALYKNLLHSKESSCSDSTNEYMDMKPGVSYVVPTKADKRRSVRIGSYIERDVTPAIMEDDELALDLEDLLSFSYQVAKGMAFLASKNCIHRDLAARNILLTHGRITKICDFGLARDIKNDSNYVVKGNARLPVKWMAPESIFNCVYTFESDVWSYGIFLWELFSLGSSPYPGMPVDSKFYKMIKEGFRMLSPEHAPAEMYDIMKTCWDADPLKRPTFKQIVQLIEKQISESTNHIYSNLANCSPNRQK

Row | Compound | IC50 [nM]
1 | Cc1cnc2[nH]cc(Cc3ccc(NCc4ccc(C(F)(F)F)nc4)nc3Cl)c2c1 [P-0234, [6-Chloro-5-(5-methyl-1H-pyrrolo[2,3-b]pyridin-3-ylmethyl)-pyridin-2-yl]-(6-trifluoromethyl-pyridin-3-ylmethyl)-amine] | < 1000
2 | Fc1cc(Cl)cc(CNc2ccc(Cc3c[nH]c4ncccc34)cn2)c1 [P-0373, (3-Chloro-5-fluoro-benzyl)-[5-(1H-pyrrolo[2,3-b]pyridin-3-ylmethyl)-pyridin-2-yl]-amine] | < 1000
3 | COc1cncc(CNc2ccc(Cc3c[nH]c4ncccc34)cn2)c1 [P-0222, (5-Methoxy-pyridin-3-ylmethyl)-[5-(1H-pyrrolo[2,3-b]pyridin-3-ylmethyl)-pyridin-2-yl]-amine] | < 1000
4 | FC(F)(F)c1ccc(CNc2ccc(Cc3c[nH]c4ncccc34)cn2)cn1 [P-0182, [5-(1H-Pyrrolo[2,3-b]pyridin-3-ylmethyl)-pyridin-2-yl]-(6-trifluoromethyl-pyridin-3-ylmethyl)-amine] | < 1000
5 | FC(F)(F)c1ccccc1CNc1ncc(Cc2c[nH]c3ncc(Cl)cc23)cn1 [P-0262, [5-(5-Chloro-1H-pyrrolo[2,3-b]pyridin-3-ylmethyl)-pyrimidin-2-yl]-(2-trifluoromethyl-benzyl)-amine] | < 1000
6 | Fc1cccc(F)c1CNc1ccc(Cc2c[nH]c3ncc(Cl)cc23)cn1 [P-0278, [5-(5-Chloro-1H-pyrrolo[2,3-b]pyridin-3-ylmethyl)-pyridin-2-yl]-(2,6-difluoro-benzyl)-amine] | < 1000
7 | COc1cnc2[nH]cc(Cc3ccc(NCc4cc(F)ccc4F)nc3)c2c1 [P-0330, (2,5-Difluoro-benzyl)-[5-(5-methoxy-1H-pyrrolo[2,3-b]pyridin-3-ylmethyl)-pyridin-2-yl]-amine] | < 1000
8 | Clc1cccc(CNc2ncc(Cc3c[nH]c4ncccc34)cn2)c1Cl [P-0313, (2,3-Dichloro-benzyl)-[5-(1H-pyrrolo[2,3-b]pyridin-3-ylmethyl)-pyrimidin-2-yl]-amine] | < 1000
9 | Fc1cc(Cl)ccc1CNc1ncc(Cc2c[nH]c3ncccc23)cn1 [P-0314, (4-Chloro-2-fluoro-benzyl)-[5-(1H-pyrrolo[2,3-b]pyridin-3-ylmethyl)-pyrimidin-2-yl]-amine] | < 1000
10 | Cn1c(CNc2ccc(Cc3c[nH]c4ncccc34)cn2)nc2ccccc21 [P-0218, (1-Methyl-1H-benzoimidazol-2-ylmethyl)-[5-(1H-pyrrolo[2,3-b]pyridin-3-ylmethyl)-pyridin-2-yl]-amine] | < 1000
11 | FC(F)(F)c1ccc(CNc2ccc(Cc3c[nH]c4ncc(Cl)cc34)c(Cl)n2)cn1 [P-0176, [6-Chloro-5-(5-chloro-1H-pyrrolo[2,3-b]pyridin-3-ylmethyl)-pyridin-2-yl]-(6-trifluoromethyl-pyridin-3-ylmethyl)-amine] | < 1000
12 | c1ccc(OCCN2CCOCC2)c(CNc2ccc(Cc3c[nH]c4ncccc34)cn2)c1 [P-0361, [2-(2-Morpholin-4-yl-ethoxy)-benzyl]-[5-(1H-pyrrolo[2,3-b]pyridin-3-ylmethyl)-pyridin-2-yl]-amine] | < 1000
13 | O=C(c1ccc(NCc2ccccc2F)nc1)c1c[nH]c2ncc(Cl)cc12 [P-0404, (5-chloro-1H-pyrrolo[2,3-b]pyridin-3-yl)-[6-(2-fluoro-benzylamino)-pyridin-3-yl]-methanone] | < 1000
14 | CS(=O)(=O)c1ccc(CNc2ccc(Cc3c[nH]c4ncccc34)cn2)c(Cl)c1 [P-0387, (2-Chloro-4-methanesulfonyl-benzyl)-[5-(1H-pyrrolo[2,3-b]pyridin-3-ylmethyl)-pyridin-2-yl]-amine] | < 1000
15 | FC(F)(F)c1ccc(CNc2ncc(Cc3c[nH]c4ncc(Cl)cc34)cn2)cc1 [P-0266, [5-(5-Chloro-1H-pyrrolo[2,3-b]pyridin-3-ylmethyl)-pyrimidin-2-yl]-(4-trifluoromethyl-benzyl)-amine] | < 1000
16 | c1ccc(N2CCOCC2)c(CNc2ccc(Cc3c[nH]c4ncccc34)cn2)c1 [P-0358, (2-Morpholin-4-yl-benzyl)-[5-(1H-pyrrolo[2,3-b]pyridin-3-ylmethyl)-pyridin-2-yl]-amine] | < 1000
17 | CCOc1ccccc1CNc1ccc(Cc2c[nH]c3ncccc23)cn1 [P-0288, (2-Ethoxy-benzyl)-[5-(1H-pyrrolo[2,3-b]pyridin-3-ylmethyl)-pyridin-2-yl]-amine] | < 1000
18 | COc1ncccc1CNc1ccc(Cc2c[nH]c3ncc(Cl)cc23)cn1 [P-0286, [5-(5-Chloro-1H-pyrrolo[2,3-b]pyridin-3-ylmethyl)-pyridin-2-yl]-(2-methoxy-pyridin-3-ylmethyl)-amine] | < 1000
19 | Fc1cc(C(F)(F)F)ccc1CNc1ncc(Cc2c[nH]c3ncc(Cl)cc23)cn1 [P-0394, [5-(5-Chloro-1H-pyrrolo[2,3-b]pyridin-3-ylmethyl)-pyrimidin-2-yl]-(2-fluoro-4-trifluoromethyl-benzyl)-amine] | < 1000
20 | N#Cc1cnc2[nH]cc(Cc3ccc(NCc4ccccc4C(F)(F)F)nc3)c2c1 [P-0274, 3-[6-(2-Trifluoromethyl-benzylamino)-pyridin-3-ylmethyl]-1H-pyrrolo[2,3-b]pyridine-5-carbonitrile] | < 1000

Further lines, results first:

Row | IC50 [nM] | Compound
21 | < 1000 | c1cc(CNc2ccc(Cc3c[nH]c4ncccc34)cn2)nc(N2CCOCC2)c1 [P-0228, (6-Morpholin-4-yl-pyridin-2-ylmethyl)-[5-(1H-pyrrolo[2,3-b]pyridin-3-ylmethyl)-pyridin-2-yl]-amine]
22 | < 1000 | Fc1ccc(C(F)(F)F)c(CNc2ccc(Cc3c[nH]c4ncccc34)cn2)c1 [P-0375, (5-Fluoro-2-trifluoromethyl-benzyl)-[5-(1H-pyrrolo[2,3-b]pyridin-3-ylmethyl)-pyridin-2-yl]-amine]
23 | < 1000 | COc1ccc(CNc2ccc(Cc3c[nH]c4ncc(C)cc34)cn2)cn1 [P-0282, (6-Methoxy-pyridin-3-ylmethyl)-[5-(5-methyl-1H-pyrrolo[2,3-b]pyridin-3-ylmethyl)-pyridin-2-yl]-amine]
24 | < 1000 | COc1ccc(CNc2ccc(Cc3c[nH]c4ncccc34)cn2)c(OC)n1 [P-0370, (2,6-Dimethoxy-pyridin-3-ylmethyl)-[5-(1H-pyrrolo[2,3-b]pyridin-3-ylmethyl)-pyridin-2-yl]-amine]
25 | < 1000 | c1cnc2[nH]cc(Cc3ccc(NCc4ccc(CN5CCOCC5)cc4)nc3)c2c1 [P-0093, (4-Morpholin-4-ylmethyl-benzyl)-[5-(1H-pyrrolo[2,3-b]pyridin-3-ylmethyl)-pyridin-2-yl]-amine]
26 | < 1000 | Fc1cccc(CNc2ncc(Cc3c[nH]c4ncc(Cl)cc34)cn2)c1F [P-0395, [5-(5-Chloro-1H-pyrrolo[2,3-b]pyridin-3-ylmethyl)-pyrimidin-2-yl]-(2,3-difluoro-benzyl)-amine]
27 | < 1000 | Clc1ccc(CNc2ncc(Cc3c[nH]c4ncc(Cl)cc34)cn2)cc1 [P-0260, (4-Chloro-benzyl)-[5-(5-chloro-1H-pyrrolo[2,3-b]pyridin-3-ylmethyl)-pyrimidin-2-yl]-amine]
28 | < 1000 | Fc1ccc(F)c(CNc2ncc(Cc3c[nH]c4ncc(Cl)cc34)cn2)c1 [P-0267, [5-(5-Chloro-1H-pyrrolo[2,3-b]pyridin-3-ylmethyl)-pyrimidin-2-yl]-(2,5-difluoro-benzyl)-amine]
29 | < 1000 | N#Cc1cnc2[nH]cc(Cc3ccc(NCc4ccc(C(F)(F)F)cc4)nc3)c2c1 [P-0269, 3-[6-(4-Trifluoromethyl-benzylamino)-pyridin-3-ylmethyl]-1H-pyrrolo[2,3-b]pyridine-5-carbonitrile]
30 | < 1000 | CCc1ccccc1CNc1ccc(Cc2c[nH]c3ncccc23)cn1 [P-0383, (2-Ethyl-benzyl)-[5-(1H-pyrrolo[2,3-b]pyridin-3-ylmethyl)-pyridin-2-yl]-amine]
31 | < 1000 | Fc1cc(C(F)(F)F)ccc1CNc1ccc(Cc2c[nH]c3ncccc23)cn1 [P-0344, (2-Fluoro-4-trifluoromethyl-benzyl)-[5-(1H-pyrrolo[2,3-b]pyridin-3-ylmethyl)-pyridin-2-yl]-amine]
32 | < 1000 | Fc1ccc(CNc2ccc(Cc3c[nH]c4ncccc34)cn2)c(F)c1 [P-0212, (2,4-Difluoro-benzyl)-[5-(1H-pyrrolo[2,3-b]pyridin-3-ylmethyl)-pyridin-2-yl]-amine]
33 | < 1000 | Fc1ccccc1CNc1ccc(Cc2c[nH]c3ncc(Cl)cc23)cn1 [P-0270, [5-(5-Chloro-1H-pyrrolo[2,3-b]pyridin-3-ylmethyl)-pyridin-2-yl]-(2-fluoro-benzyl)-amine]
34 | < 1000 | Clc1cccc(CNc2ccc(Cc3c[nH]c4ncccc34)cn2)c1Cl [P-0351, (2,3-Dichloro-benzyl)-[5-(1H-pyrrolo[2,3-b]pyridin-3-ylmethyl)-pyridin-2-yl]-amine]
35 | < 1000 | COc1cccc(CNc2ccc(Cc3c[nH]c4ncccc34)cn2)c1Cl [P-0359, (2-Chloro-3-methoxy-benzyl)-[5-(1H-pyrrolo[2,3-b]pyridin-3-ylmethyl)-pyridin-2-yl]-amine]
36 | < 1000 | O=C(Nc1ccc(Cc2c[nH]c3ncccc23)cn1)c1cccc(C(F)(F)F)c1 [P-0114, N-[5-(1H-Pyrrolo[2,3-b]pyridin-3-ylmethyl)-pyridin-2-yl]-3-trifluoromethyl-benzamide]
37 | < 1000 | c1cnc2[nH]cc(Cc3ccc(NCCN4CCOCC4)nc3)c2c1 [P-0099, (2-Morpholin-4-yl-ethyl)-[5-(1H-pyrrolo[2,3-b]pyridin-3-ylmethyl)-pyridin-2-yl]-amine]
38 | < 1000 | Fc1nc(NCc2ccc(Cl)cc2)ccc1Cc1c[nH]c2ncc(Cl)cc12 [P-0132, (4-Chloro-benzyl)-[5-(5-chloro-1H-pyrrolo[2,3-b]pyridin-3-ylmethyl)-6-fluoro-pyridin-2-yl]-amine]
39 | < 1000 | COc1cccc(CNc2ccc(Cc3c[nH]c4ncccc34)cn2)c1F [P-0352, (2-Fluoro-3-methoxy-benzyl)-[5-(1H-pyrrolo[2,3-b]pyridin-3-ylmethyl)-pyridin-2-yl]-amine]
40 | < 1000 | Cc1cc(F)ccc1CNc1ccc(Cc2c[nH]c3ncccc23)cn1 [P-0372, (4-Fluoro-2-methyl-benzyl)-[5-(1H-pyrrolo[2,3-b]pyridin-3-ylmethyl)-pyridin-2-yl]-amine]
